The record followed here is PubChem BioAssay AID336 (DTP/NCI, 2004).

In the test the test system is BDF1 mice, P388/VCR leukemia ip, median survival T/C. Put plainly: NCI In Vivo Anticancer Drug Screen. Data for tumor model P388 Leukemia resistant to Vincristine; NSC 67574 (intraperitoneal) in B6D2F1 (BDF1) mice. The conditions noted are these: endpoint: median survival time, higher = longer survival. How it is done: The antitumor activity of compounds was measured in mice bearing transplantable tumors. Survival or tumor size were measured and the results are expressed as the measurement made in the treated group (T) divided by the measurement made in the vehicle treated control group (C). The tumor model used in this assay is P388 Leukemia resistant to Vincristine; NSC 67574 (intraperitoneal) in B6D2F1 (BDF1) mice

The mark [1] stands for this setting: dose: 12.5 mg/kg/injection, schedule: Q01DX010 (sc), vehicle: steriod suspending solution.
Setting [2] is: dose: 25.0 mg/kg/injection, schedule: Q01DX010 (sc), vehicle: steriod suspending solution.
[3] abbreviates: dose: 50.0 mg/kg/injection, schedule: Q01DX010 (sc), vehicle: steriod suspending solution.
Where [4] appears, read: dose: 100.0 mg/kg/injection, schedule: Q01DX010 (sc), vehicle: steriod suspending solution.
Setting [5] is: dose: 125.0 mg/kg/injection, schedule: Q01DX010 (ip), vehicle: saline.
[6] abbreviates: dose: 250.0 mg/kg/injection, schedule: Q01DX010 (ip), vehicle: saline.
The mark [7] stands for this setting: dose: 25.0 mg/kg/injection, schedule: Q01DX010 (ip), vehicle: saline.
Setting [8] is: dose: 50.0 mg/kg/injection, schedule: Q01DX010 (ip), vehicle: saline.
[9] abbreviates: dose: 200.0 mg/kg/injection, schedule: Q01DX010 (ip), vehicle: saline.
Setting [10] is: dose: 5.0 mg/kg/injection, schedule: Q01DX010 (ip), vehicle: saline.
Setting [11] is: dose: 10.0 mg/kg/injection, schedule: Q01DX010 (ip), vehicle: saline.
The mark [12] stands for this setting: dose: 20.0 mg/kg/injection, schedule: Q01DX010 (ip), vehicle: saline.
[13] abbreviates: dose: 40.0 mg/kg/injection, schedule: Q01DX010 (ip), vehicle: saline.
The mark [14] stands for this setting: dose: 100.0 mg/kg/injection, schedule: Q01DX010 (ip), vehicle: saline.

Values joined by “and” are separate entries in the source; they are usually repeats but may differ in a detail not shown here. Equal values may be shown once. Toxic doses and inconclusive results are not listed.

Consider `CC[C@H]1CN2CCc3cc(OC)c(OC)cc3[C@@H]2C[C@@H]1C[C@H]1NCCc2cc(OC)c(OC)cc21`, for which the T/C runs as follows: (dose: 7.78 mg/kg/injection, schedule: Q04DX003 (ip), vehicle: saline) 105 % of control; (dose: 13.0 mg/kg/injection, schedule: Q04DX003 (ip), vehicle: saline) 108 % of control; (dose: 21.6 mg/kg/injection, schedule: Q04DX003 (ip), vehicle: saline) 105 % of control.

As to `C[C@]12C=CC(=O)C=C1CC[C@@H]1[C@@H]2[C@@H](O)C[C@@]2(C)[C@H]1CC[C@]2(O)C(=O)CO`, the T/C reads like this: under setting [1], 107 % of control and 116 % of control; under setting [2], 103 % of control and 116 % of control; under setting [3], 103 % of control and 120 % of control; under setting [4], 108 % of control and 111 % of control.

On to `CCOC(=O)NP(=O)(N1CC1(C)C)N1CC1(C)C` (stereo not drawn), for which the T/C is, setting by setting: (dose: 31.3 mg/kg/injection, schedule: Q01DX010 (ip), vehicle: saline) 117 % of control; under setting [5], 185 % of control; under setting [6], 246 % of control.

Consider `O=C(Nc1ccc(NC(=O)Nc2cccc(C3=NCCN3)c2)cc1)Nc1cccc(C2=NCCN2)c1`, for which the T/C reads like this: (dose: 120.0 mg/kg/injection, schedule: Q01DX010 (ip), vehicle: saline) 162 % of control and 183 % of control; (dose: 480.0 mg/kg/injection, schedule: Q01DX010 (ip), vehicle: saline) 100 % of control.

For the compound `CN(C)/N=N/c1nc[nH]c1C(N)=O`, the T/C was 100 % of control and 116 % of control under setting [7]; 107 % of control under setting [8]; 107 % of control and 116 % of control under setting [9].

With `C[n+]1ccc(Nc2ccc(NC(=O)c3ccc(Nc4cc[n+](C)c5ccc(N)cc45)cc3)cc2)cc1`, the T/C (dose: 3.24 mg/kg/injection, schedule: Q04DX003 (ip), vehicle: water) was 116 % of control.

On to `CN=C(NC)c1ccc(NC(=O)c2ccc(C(=O)Nc3ccc(C(=NC)NC)cc3)c(Cl)c2)cc1`, for which the T/C runs as follows: (dose: 18.0 mg/kg/injection, schedule: Q01DX010 (ip), vehicle: saline) 117 % of control; (dose: 27.0 mg/kg/injection, schedule: Q01DX010 (ip), vehicle: saline) 95 % of control.

For the compound `Oc1cc(CN(CCCl)CCCl)c(O)cc1CN(CCCl)CCCl`, the T/C is 112 % of control (dose: 0.31 mg/kg/injection, schedule: Q01DX010 (ip), vehicle: saline); 117 % of control (dose: 2.5 mg/kg/injection, schedule: Q01DX010 (ip), vehicle: saline); 100 % of control under setting [10].

Consider `O[C@H](CN1CC1)[C@@H](O)CN1CC1`, for which the T/C by setting is: (dose: 0.13 mg/kg/injection, schedule: Q01DX010 (ip), vehicle: saline) 180 % of control and 200 % of control; (dose: 0.25 mg/kg/injection, schedule: Q01DX010 (ip), vehicle: saline) 150 % of control and 241 % of control.

As to `O=C1CCC(N2C(=O)c3ccccc3C2=O)C(=O)N1` (stereo not drawn), the T/C was 95 % of control (dose: 62.5 mg/kg/injection, schedule: Q01DX010 (ip), vehicle: saline) and 91 % of control under setting [5].

For `N#[N+]c1cnc([O-])[nH]c1=O`, the T/C under setting [10] is 156 % of control.

In the case of `Cc1c2ccncc2c(C)c2c1[nH]c1ccccc12`, the T/C is 150 % of control (dose: 13.0 mg/kg/injection, schedule: Q04DX003 (ip), vehicle: water); 210 % of control (dose: 21.6 mg/kg/injection, schedule: Q04DX003 (ip), vehicle: water); 158 % of control (dose: 24.0 mg/kg/injection, schedule: Q04DX003 (ip), vehicle: clinical formulation); 253 % of control (dose: 36.0 mg/kg/injection, schedule: Q04DX003 (ip), vehicle: water); 203 % of control (dose: 40.0 mg/kg/injection, schedule: Q04DX003 (ip), vehicle: clinical formulation); 93 % of control (dose: 60.0 mg/kg/injection, schedule: Q04DX003 (ip), vehicle: water). Further, the T/C (dose: 66.7 mg/kg/injection, schedule: Q04DX003 (ip), vehicle: clinical formulation) is 98 % of control.

As to `Cn1c(N)nc2nc[nH]c2c1=S`, the T/C runs as follows: under setting [11], 92 % of control and 100 % of control; under setting [12], 96 % of control and 107 % of control; under setting [13], 100 % of control and 123 % of control; (dose: 80.0 mg/kg/injection, schedule: Q01DX010 (ip), vehicle: saline) 96 % of control.

As for `CC/C(=C(/CC)c1ccc(O)cc1)c1ccc(O)cc1`, the T/C under setting [1] was 88 % of control and 111 % of control; the T/C under setting [2] was 103 % of control; the T/C under setting [3] is 100 % of control; the T/C under setting [4] is 103 % of control.

As for `N#CCSc1ncnc2nc[nH]c12`, the T/C (dose: 15.0 mg/kg/injection, schedule: Q01DX010 (ip), vehicle: saline) was 96 % of control and 100 % of control; the T/C (dose: 30.0 mg/kg/injection, schedule: Q01DX010 (ip), vehicle: saline) was 100 % of control and 103 % of control; the T/C (dose: 60.0 mg/kg/injection, schedule: Q01DX010 (ip), vehicle: saline) is 108 % of control and 123 % of control.

`COc1cc(NS(C)(=O)=O)ccc1Nc1c2ccccc2nc2ccccc12`: the T/C is 188 % of control (dose: 3.6 mg/kg/injection, schedule: Q04DX003 (ip), vehicle: clinical formulation); 122 % of control (dose: 3.6 mg/kg/injection, schedule: Q04DX003 (ip), vehicle: other); 191 % of control (dose: 6.0 mg/kg/injection, schedule: Q04DX003 (ip), vehicle: clinical formulation); 193 % of control (dose: 10.0 mg/kg/injection, schedule: Q04DX003 (ip), vehicle: clinical formulation); 153 % of control (dose: 10.0 mg/kg/injection, schedule: Q04DX003 (ip), vehicle: other); 107 % of control (dose: 16.7 mg/kg/injection, schedule: Q04DX003 (ip), vehicle: clinical formulation). The T/C (dose: 16.7 mg/kg/injection, schedule: Q04DX003 (ip), vehicle: other) is 88 % of control.

Turning to `C=CC(CN1CC1)OC(C)=O` (stereo not drawn), the T/C was 116 % of control (dose: 2.0 mg/kg/injection, schedule: Q01DX010 (ip), vehicle: saline) and 123 % of control (dose: 8.0 mg/kg/injection, schedule: Q01DX010 (ip), vehicle: saline).

Take `CN(Cc1cnc2nc(N)nc(N)c2n1)c1ccc(C(=O)N[C@@H](CCC(=O)O)C(=O)O)cc1`: the T/C (dose: 8.64 mg/kg/injection, schedule: Q04DX003 (ip), vehicle: sodium bicarbonate) is 167 % of control; the T/C (dose: 14.4 mg/kg/injection, schedule: Q04DX003 (ip), vehicle: sodium bicarbonate) is 188 % of control; the T/C (dose: 24.0 mg/kg/injection, schedule: Q04DX003 (ip), vehicle: sodium bicarbonate) is 214 % of control.

`COc1cc(-c2ccc(Nc3ccccc3C(=O)O)c(OC)c2)ccc1Nc1ccccc1C(=O)O`: the T/C under setting [14] was 150 % of control.

With `CSc1ncnc2nc[nH]c12`, the T/C reads like this: under setting [7], 104 % of control and 107 % of control; under setting [8], 103 % of control and 116 % of control; under setting [14], 112 % of control and 115 % of control; under setting [9], 111 % of control and 112 % of control.

On to `CC1CCOS(=O)O1` (stereo not drawn), for which the T/C reads like this: under setting [11], 96 % of control; under setting [12], 103 % of control; under setting [13], 103 % of control.

Turning to `Nc1nncs1`, the T/C was 101 % of control (dose: 64.8 mg/kg/injection, schedule: Q04DX003 (ip), vehicle: saline) and 151 % of control (dose: 180.0 mg/kg/injection, schedule: Q04DX003 (ip), vehicle: saline).

As to `O=C(Nc1ccc(C2=NCCN2)cc1)c1ccc(C(=O)Nc2ccc(C3=NCCN3)cc2)cc1`, the T/C reads like this: (dose: 112.0 mg/kg/injection, schedule: Q01DX010 (ip), vehicle: saline) 156 % of control; (dose: 167.0 mg/kg/injection, schedule: Q01DX010 (ip), vehicle: saline) 173 % of control; under setting [6], 178 % of control.

Consider `COS(C)(=O)=O`, for which the T/C is, setting by setting: (dose: 12.5 mg/kg/injection, schedule: Q01DX010 (ip), vehicle: saline) 123 % of control; under setting [7], 103 % of control.

Take `Nc1cc(C(=O)Nc2ccc(C3=NCCN3)cc2)cc(C(=O)Nc2ccc(C3=NCCN3)cc2)c1`: the T/C reads like this: (dose: 32.0 mg/kg/injection, schedule: Q01DX010 (ip), vehicle: saline) 156 % of control; (dose: 64.0 mg/kg/injection, schedule: Q01DX010 (ip), vehicle: saline) 165 % of control.
